The values below come from patent publication US20220324835A1 (Nurix Therapeutics, Inc., priority 2018, published 2022).

What is called IC50 is the midpoint of a concentration-inhibition curve. As a reminder, the Kd is the constant that tells how readily two partners part at equilibrium. High values mean lower affinity, low ones higher affinity.

Assay [1] addresses T1, Cbl-b (Homo sapiens, UniProt Q13191). Briefly: Cbl-b inhibition assay (Cbl-b activity assay, FRET, Biological Example 1; 100 mM NaCl, 60 nM Src kinase). Type of assay: biochemical. To be noted: upper bound stated in text lists; read-out: IC50 values in the Cbl-b inhibition assay of Biological Example 1. The essentials: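 FRET read-out: loss of signal marks inhibition. Mix = biotin-Avi-Cbl-b (N-term), Src kinase, UbcH5B-Ub(Bodipy-FL, irreversible conjugate), streptavidin-Tb, assay buffer.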

Assay [2] addresses T1, Cbl-b. Briefly: Cbl-b activity assay (Cbl-b inhibition assay), TR-FRET of Cbl-b interaction with UbcH5B-Ub. Type of assay: biochemical. The essentials:
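UbcH5B (C85K) conjugated to N-terminally Bodipy-Fluorescein-labeled ubiquitin served as the fluorescent partner. After compound preincubation, Src kinase (60 nM) with 1 mM ATP and 5 mM MgCl2 (final) was added for 1.5 h, followed by a further 1 h incubation. Some values were obtained with 50 mM NaCl and 30 nM Src.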
A general note: In TR-FRET formats the signal depends on donor and acceptor labels being close together.

The target of the next assay is Cbl-b (residues 36-427) (Homo sapiens, UniProt Q13191). Briefly: Cbl-b binding assay (SPR, Biacore T200). To be noted: 20° C., 1:1 binding model. The procedure: SPR data was collected on a Biacore T200 (GE Healthcare) using a NeutrAvidin (Invitrogen) capture surface that was generated on a polycarboxylate hydrogel sensor chip of medium charge density (XanTec Bioanalytics GmbH) at 20° C. The surface was prepared using 20 mM HEPES, pH 7.5, 100 mM NaCl, 0.5 mM TCEP, 0.01% Triton X-100 as the immobilization buffer. Neutravidin was coupled to the sensor chip through EDC/NHS amine coupling. All steps were performed using a flow rate of 10 μl/min. First, the chip was preconditioned with a 3-min injection of 1 M NaCl, 0.1 M Borate followed by a 10-min equilibration in immobilization buffer. The surface was activated by a 5-min injection of 100 mM EDC/50 mM NHS. Next, 250 μg/mL NeutrAvidin buffered in 10 mM sodium acetate buffer, pH 5.0 was injected over the surface for 2 min. The surface was deactivated with 1 M Tris, pH 8.5 for 7 min then re-equilibrated in immobilization buffer for 7 min. […] Flow cell 1 served as a reference surface and was prepared without protein. All binding measurements were made in 20 mM HEPES, pH 7.5, 100 mM NaCl, 0.5 mM TCEP, 0.01% Triton X-100, 2% DMSO (referred as assay buffer) at 20° C. Compounds, prepared in assay buffer, were diluted from atop concentration of either 100 μM or 50 μM using either a 2- or 3-fold dilution scheme containing 8 or 10 points. Samples were injected for 50 s at 50 μl/min. Dissociation time varied from 90-180 s, depending on anticipated potency. The surface was regenerated by injection of 0.3 M NaCl, prepared in assay buffer for 20 s at 10 μl/min. Positive and negative control samples were run between each compound to monitor surface integrity.
Column marked with an asterisk (*) were tested as described above with assay buffer containing 50 mM NaCl instead of 100 mM NaCl and 30 nM Src kinase instead of 60 nM Src kinase. The resulting data for the Cbl-b binding assay was solvent corrected and double referenced prior to analysis. All data were globally fit to a steady-state affinity and kinetic binding model where applicable). Fit parameters were derived from a 1:1 binding model using the Biacore T200 Evaluation Software V2.0 (GE Healthcare) (Table 2).
Background: SPR reads the build-up and loss of mass on a sensor chip optically.

The mark [3] stands for this setting: * assay buffer containing 50 mM NaCl instead of 100 mM NaCl and 30 nM Src kinase instead of 60 nM, read-out: Cbl-b activity IC50 (μM)*.
Where [4] appears, read: assay buffer with 100 mM NaCl, 60 nM Src kinase, read-out: Cbl-b activity IC50.

Sequence of Cbl-b (residues 36-427) (Q13191 36-427): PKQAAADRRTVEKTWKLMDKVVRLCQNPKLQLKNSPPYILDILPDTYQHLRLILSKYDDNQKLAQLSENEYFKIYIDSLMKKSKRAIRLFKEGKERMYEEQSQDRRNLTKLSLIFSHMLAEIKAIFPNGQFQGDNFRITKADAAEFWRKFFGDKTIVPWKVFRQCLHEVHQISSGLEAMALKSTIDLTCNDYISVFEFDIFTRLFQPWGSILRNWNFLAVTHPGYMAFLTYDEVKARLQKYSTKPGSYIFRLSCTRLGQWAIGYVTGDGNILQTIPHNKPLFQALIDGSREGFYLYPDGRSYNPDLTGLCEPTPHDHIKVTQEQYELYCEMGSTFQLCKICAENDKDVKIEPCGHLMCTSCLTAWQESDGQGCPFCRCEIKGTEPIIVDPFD
T1 sequence (Q13191 36-427): as above

As for `CC(Sc1nncn1C)c1cccc(NC(=O)c2ccc3c(n2)CCCC3)c1` (stereo not drawn) [Compound 23, N-(3-(1-((4-Methyl-4H-1,2,4-triazol-3-yl)thio)ethyl)phenyl)-5,6,7,8-tetrahydroquinoline-2-carboxamide], the IC50 is at most 10 µM on Cbl-b [1], 1 to 3 µM at Cbl-b [2] (setting [3]) and 1 to 3 µM at Cbl-b [2] (setting [4]). On Cbl-b (residues 36-427), this compound gave a Kd of 3 to 10 µM.

For the compound `Cc1cc(C(=O)Nc2cccc([C@H](C)Sc3nncn3C)c2)ncc1Cl` [Compound 34, (S)-5-Chloro-4-methyl-N-(3-(1-((4-methyl-4H-1,2,4-triazol-3-yl)thio)ethyl)phenyl)picolinamide], the IC50 at Cbl-b [1] was at most 0.5 µM; at Cbl-b [2] (setting [3]) it was 0.301 to 1 µM; on Cbl-b [2] (setting [4]) it was 0.301 to 1 µM. Also, the Kd on Cbl-b (residues 36-427) lay in the range of 1 to 3 µM.

With `C[C@H](Sc1nncn1C)c1cccc(NC(=O)c2cc(C(F)(F)F)c(Cl)cn2)c1` [Compound 40, (S)-5-Chloro-N-(3-(1-((4-methyl-4H-1,2,4-triazol-3-yl)thio)ethyl)phenyl)-4-(trifluoromethyl)picolinamide], the values for the IC50 on Cbl-b [1], at Cbl-b [2] (setting [3]) and on Cbl-b [2] (setting [4]) were at most 10 µM, 3 to 10 µM and 1 to 3 µM, respectively. This compound came in with a Kd on Cbl-b (residues 36-427) of 3 to 10 µM.

On to `Cc1nc(C(=O)Nc2cccc([C@H](C)Sc3nncn3C)c2)cs1` [Compound 41, (S)-2-Methyl-N-(3-(1-((4-methyl-4H-1,2,4-triazol-3-yl)thio)ethyl)phenyl)thiazole-4-carboxamide], for which the IC50 on Cbl-b [1] was at most 10 µM; on Cbl-b [2] (setting [4]), 1 to 3 µM. Besides, the Kd on Cbl-b (residues 36-427) is 1 to 3 µM.

Take `C[C@H](Sc1nncn1C)c1cccc(NC(=O)c2cccc(C(F)(F)F)c2F)c1` [Compound 42, (S)-2-Fluoro-N-(3-(1-((4-methyl-4H-1,2,4-triazol-3-yl)thio)ethyl)phenyl)-3-(trifluoromethyl)benzamide]: the IC50 at Cbl-b [1] was at most 1 µM; at Cbl-b [2] (setting [4]), 0.301 to 1 µM. The Kd on Cbl-b (residues 36-427) fell in the range of 0.301 to 1 µM.

For `COc1c(C(=O)Nc2cccc([C@H](C)Sc3nncn3C)c2)cccc1C(F)(F)F` [Compound 43, (S)-2-Methoxy-N-(3-(1-((4-methyl-4H-1,2,4-triazol-3-yl)thio)ethyl)phenyl)-3-(trifluoromethyl)benzamide], the IC50 on Cbl-b [1] is at most 10 µM; on Cbl-b [2] (setting [4]) it was 3 to 10 µM. At Cbl-b (residues 36-427), the Kd is over 10 µM.

In the case of `C[C@H](Sc1nncn1C)c1cccc(NC(=O)c2cccc(-c3ccn[nH]3)c2)c1` [Compound 44, (S)-N-(3-(1-((4-Methyl-4H-1,2,4-triazol-3-yl)thio)ethyl)phenyl)-3-(1H-pyrazol-5-yl)benzamide], the IC50 on Cbl-b [1] was at most 10 µM; at Cbl-b [2] (setting [4]), 3 to 10 µM. On Cbl-b (residues 36-427), the Kd lay within 3 to 10 µM.

On to `C[C@H](Sc1nncn1C)c1cccc(NC(=O)c2cccc(-c3ccnn3C)c2)c1` [Compound 45, 3-(1-Methyl-1H-pyrazol-5-yl)-N-[3-[(1S)-1-[(4-methyl-4H-1,2,4-triazol-3-yl)sulfanyl]ethyl]phenyl]benzamide], for which the IC50 is at most 10 µM on Cbl-b [1] and 3 to 10 µM on Cbl-b [2] (setting [4]). Besides, on Cbl-b (residues 36-427), the Kd fell in the range of 3 to 10 µM.

For the compound `C[C@H](Sc1nncn1C)c1cccc(NC(=O)c2cc(CCO)ccn2)c1` [Compound 46, (S)-4-(2-Hydroxyethyl)-N-(3-(1-((4-methyl-4H-1,2,4-triazol-3-yl)thio)ethyl)phenyl)picolinamide], the IC50 on Cbl-b [1] was at most 10 µM; on Cbl-b [2] (setting [4]), 1 to 3 µM. The same compound registered a Kd at Cbl-b (residues 36-427) of 3 to 10 µM.

Turning to `CNc1cccc(C(=O)Nc2cccc([C@H](C)Sc3nncn3C)c2)c1` [Compound 47, (S)-N-(3-(1-((4-Methyl-4H-1,2,4-triazol-3-yl)thio)ethyl)phenyl)-3-(methylamino)benzamide], the IC50 at Cbl-b [1] is at most 10 µM; at Cbl-b [2] (setting [4]) it was 3 to 10 µM. On Cbl-b (residues 36-427), this compound showed a Kd of 3 to 10 µM.

`C[C@H](Sc1nncn1C)c1cccc(NC(=O)c2nc(C(F)(F)F)ccc2N)c1` [Compound 49, (S)-3-Amino-N-(3-(1-((4-methyl-4H-1,2,4-triazol-3-yl)thio)ethyl)phenyl)-6-(trifluoromethyl)picolinamide]: the IC50 was at most 10 µM on Cbl-b [1] and 1 to 3 µM on Cbl-b [2] (setting [4]). Moreover, the dissociation constant (Kd) at Cbl-b (residues 36-427) fell in the range of 1 to 3 µM.

As for `Cc1cc(C(=O)Nc2cccc([C@H](C)Sc3nncn3C)c2)[nH]c(=O)c1` [Compound 50, (S)-4-Methyl-N-(3-(1-((4-methyl-4H-1,2,4-triazol-3-yl)thio)ethyl)phenyl)-6-oxo-1,6-dihydropyridine-2-carboxamide], the IC50 on Cbl-b [1] is at most 10 µM; at Cbl-b [2] (setting [4]), 3 to 10 µM. Also, the Kd at Cbl-b (residues 36-427) is over 10 µM.

On to `Cc1cnc(C(=O)Nc2cccc([C@H](C)Sc3nncn3C)c2)cc1C(F)(F)F` [Compound 52, (S)-5-methyl-N-(3-(1-((4-methyl-4H-1,2,4-triazol-3-yl)thio)ethyl)phenyl)-4-(trifluoromethyl)picolinamide], for which the IC50 at Cbl-b [1] was at most 10 µM; at Cbl-b [2] (setting [4]) it was 3 to 10 µM. On Cbl-b (residues 36-427), the Kd is over 10 µM.

Take `Cc1cnc(C(=O)Nc2cccc([C@H](C)Sc3nncn3C)c2)cc1C1CC1` [Compound 53, (S)-4-cyclopropyl-5-methyl-N-(3-(1-((4-methyl-4H-1,2,4-triazol-3-yl)thio)ethyl)phenyl)picolinamide]: the IC50 on Cbl-b [1] was at most 10 µM; on Cbl-b [2] (setting [4]) it was 3 to 10 µM. The compound also registered a Kd at Cbl-b (residues 36-427) of 3 to 10 µM.

With `CC(=O)Nc1ccnc(C(=O)Nc2cccc([C@H](C)Sc3nncn3C)c2)c1` [Compound 59, (S)-4-acetamido-N-(3-(1-((4-methyl-4H-1,2,4-triazol-3-yl)thio)ethyl)phenyl)picolinamide], the IC50 on Cbl-b [1] is at most 10 µM; on Cbl-b [2] (setting [4]), 1 to 3 µM. The same compound gave a Kd on Cbl-b (residues 36-427) of 3 to 10 µM.

For `CNc1ccnc(C(=O)Nc2cccc([C@H](C)Sc3nncn3C)c2)c1` [Compound 60, (S)-N-(3-(1-((4-methyl-4H-1,2,4-triazol-3-yl)thio)ethyl)phenyl)-4-(methylamino)picolinamide], the IC50 is at most 10 µM at Cbl-b [1] and 1 to 3 µM at Cbl-b [2] (setting [4]). At Cbl-b (residues 36-427), this compound showed a Kd of 3 to 10 µM.

With `C[C@H](Sc1nncn1C)c1cccc(NC(=O)c2cc(C(F)(F)F)cc(Cl)n2)c1` [Compound 66, (S)-6-chloro-N-(3-(1-((4-methyl-4H-1,2,4-triazol-3-yl)thio)ethyl)phenyl)-4-(trifluoromethyl)picolinamide], the IC50 is at most 10 µM at Cbl-b [1] and 1 to 3 µM at Cbl-b [2] (setting [4]). The same compound yielded a Kd at Cbl-b (residues 36-427) of 3 to 10 µM.

Regarding `COc1cc(C(F)(F)F)cc(C(=O)Nc2cccc([C@H](C)Sc3nncn3C)c2)n1` [Compound 73, (S)-6-methoxy-N-(3-(1-((4-methyl-4H-1,2,4-triazol-3-yl)thio)ethyl)phenyl)-4-(trifluoromethyl)picolinamide], the IC50 was at most 10 µM at Cbl-b [1] and 1 to 3 µM on Cbl-b [2] (setting [4]). The Kd at Cbl-b (residues 36-427) fell in the range of 3 to 10 µM.

Regarding `C[C@H](Sc1nncn1C)c1cccc(NC(=O)c2cc3ccc(OCC(=O)O)cc3cn2)c1` [Compound 308, (S)-2-((3-((3-(1-((4-methyl-4H-1,2,4-triazol-3-yl)thio)ethyl)phenyl)carbamoyl)isoquinolin-7-yl)oxy)acetic acid], the IC50 on Cbl-b [2] (setting [4]) was 1 to 3 µM. This compound also returned a Kd at Cbl-b (residues 36-427) of 3 to 10 µM.

In the case of `C[C@H](Sc1nncn1C)c1cccc(NC(=O)c2ccc3c(OCC(=O)O)cccc3n2)c1` [Compound 309, (S)-2-(2-(3-(1-(4-methyl-4H-1,2,4-triazol-3-ylthio)ethyl)phenylcarbamoyl)quinolin-5-yloxy)acetic acid], the IC50 at Cbl-b [2] (setting [4]) lay within 1 to 3 µM. On Cbl-b (residues 36-427), the Kd lay within 3 to 10 µM.

As to `CNC(=O)COc1cccc2nc(C(=O)Nc3cccc([C@H](C)Sc4nncn4C)c3)ccc12` [Compound 310, (S)-N-(3-(1-((4-methyl-4H-1,2,4-triazol-3-yl)thio)ethyl)phenyl)-5-(2-(methylamino)-2-oxoethoxy)quinoline-2-carboxamide], on Cbl-b [2] (setting [4]), the IC50 lay in the range of 0.301 to 1 µM. The Kd at Cbl-b (residues 36-427) is 0.301 to 1 µM.
